Read-outs that look alike come from different tables or passages of the source.
Columns and labels:
HepaRG cells = assay: Transcriptomics (TempO-Seq, BMD analysis) in HepaRG cells; type: cell-based
Experimental: (§10) These differed with respect to the number of genes passing all filters in each pathway (3 versus 5 genes). […] Therefore, we captured pathways which fulfilled both criteria.
(§11) HepG2 (human hepatoblastoma) , MCF-7 (human breast adenocarcinoma) cells supplied by
(§12) Public Health England European Collection of Cell Cultures (ECACC, Salisbury, UK). Differentiated
(§13) HepaRG cells (HPR116, Lot HPR116239 -TA08) were from Biopredic International (Rennes, France).
(§14) Test chemicals were prepared in DMSO as serial dilutions, resulting in concentrations in media of
(§15) biological replicates were treated with the appropriate dose of co mpound for 24 h prior to cell lysis.
(§16) Biospyder human whole genome panel version 1 (https://biospyder.com).
Gene normalization and analysis
(§17) expression values for each probe were normalized by applying DESEQ2 normalization. A pseudo-
(§18) read-count of 1.0 was added to each normalized expression value, and then the values were log2
(§19) transformed . Analyses performed included Gene and Pathway, Dose Response and Network
(§20) monotonic increasing/decreasing trend were those which confirmed to the criteria : William’s trend
(§21) Those genes were then used in categorical (pathway) analysis for the Gene Ontology (GO) terms and
(§22) REACTOME pathways. Significant dose responsive pathways were determined according to : Fisher’s

TSHR = system: TSHR; set-up: method as in ToxCast; settings: ref ToxCast; cited from earlier work; also: key: Pos = positive result; Neg = negative result; Inc = uncertain/inconclusive result
Deiodinase = system: Deiodinase; set-up: method as in ToxCast; settings: ref ToxCast, cited from earlier work; as to Thyroid pathway: Deiodinase (Not AOP), Call: key: Pos = positive result; Neg = negative result; Inc = uncertain/inconclusive result
HepG2 cells [1] = assay: cells; type: cell-based; settings: for AC50: Homo sapiens, HepG2, 24 h
Thyroid peroxidase = system: Thyroid peroxidase; set-up: method as in ToxCast; settings: ref ToxCast; cited from earlier work; also: key: Pos = positive result; Neg = negative result; Inc = uncertain/inconclusive result
[2] = type: in vitro ADME; settings: 3 nmol/cm^2 in the body lotion formulation
Text: Additional information was required to determine whether an adjustment factor was needed to account for a difference in the absorption of daidzein after topical application and whether the absorption was impacted by the use of the intended (body lotion base) formulation. […]. […] […]. The results of this study are described in detail by [Géniès et al. (2024)] and are summarized here.

5-HT2B (h) = 5-HT2B (h) (Homo sapiens, UniProt P41595); assay: Pharmacology profiling: 5-HT2B (h) (agonist RL); type: binding
Chain of 5-HT2B (h) (P41595 whole entry): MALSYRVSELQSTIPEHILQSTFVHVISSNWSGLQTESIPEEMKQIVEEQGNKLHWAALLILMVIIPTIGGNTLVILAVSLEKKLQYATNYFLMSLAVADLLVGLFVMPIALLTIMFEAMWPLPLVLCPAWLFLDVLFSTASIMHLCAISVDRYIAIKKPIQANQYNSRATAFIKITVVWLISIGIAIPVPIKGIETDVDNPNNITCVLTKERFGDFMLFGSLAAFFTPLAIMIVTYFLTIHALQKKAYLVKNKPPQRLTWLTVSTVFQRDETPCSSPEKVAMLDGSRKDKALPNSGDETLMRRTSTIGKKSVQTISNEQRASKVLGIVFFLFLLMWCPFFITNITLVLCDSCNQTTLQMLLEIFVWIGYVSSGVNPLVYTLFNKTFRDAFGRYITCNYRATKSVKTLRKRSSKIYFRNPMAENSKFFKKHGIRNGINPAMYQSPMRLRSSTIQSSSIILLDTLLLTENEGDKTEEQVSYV
Text: (§1) Cosmetics Europe’s Systemic Toxicity Taskforce (SysTox-TF) has extended the list of targets in an in vitro screen originally described by [Bowes et al. (2012)] to assess the effects of cosmetic chemicals on target molecules. The approach was based on the knowledge that various targets of pharmacological interest have been linked to human adverse drug reactions, and that screening of these has helped the pharma industry in identifying drug candidates with acceptable human safety profiles ([Bowes et al., 2012]; [Scott et al., 2022]). The methods used by the pharma industry were adapted for use in cosmetic chemical NGRA. A final list of 83 target assays were considered suitable for cosmetic chemical safety testing (see Supplementary Materials S1.7). The targets were receptors, ion channels, transporters and enzymes identified by the pharma industry as linked to human adverse drug reactions, supplemented by additional targets that have been reasoned to be linked to systemic toxicities of chemicals in animals. Chemicals that are flagged for a target are tested in follow-up dose-response assays to establish potency of the interaction. […]. [Valentin et al., 2018]; [Dodson et al., 2021]). […].
(§2) assay’s reference compound was set to 100%. For antagonist assays, the basal signal (exposure to fixed concentration of agonist only) was set to 100%. Activity of the samples was scaled accordingly, […]
(§3) Using these graphs, lowest […]
(§4) compound activity for antagonist assays.
(§5) S1.7. Pharmacology profiling assays […]
(§6) reasoned to link to pathological effects. […]
(§7) around the control level. […]
(§8) determine the potency (IC50).
(§9) Supplementary Table S4 Pharmacology profiling assay panel. […]

COX1 (h) = COX1 (h) (Homo sapiens, UniProt P23219); assay: Pharmacology profiling: COX1 (h); type: biochemical
Chain of COX1 (h) (P23219 24-599): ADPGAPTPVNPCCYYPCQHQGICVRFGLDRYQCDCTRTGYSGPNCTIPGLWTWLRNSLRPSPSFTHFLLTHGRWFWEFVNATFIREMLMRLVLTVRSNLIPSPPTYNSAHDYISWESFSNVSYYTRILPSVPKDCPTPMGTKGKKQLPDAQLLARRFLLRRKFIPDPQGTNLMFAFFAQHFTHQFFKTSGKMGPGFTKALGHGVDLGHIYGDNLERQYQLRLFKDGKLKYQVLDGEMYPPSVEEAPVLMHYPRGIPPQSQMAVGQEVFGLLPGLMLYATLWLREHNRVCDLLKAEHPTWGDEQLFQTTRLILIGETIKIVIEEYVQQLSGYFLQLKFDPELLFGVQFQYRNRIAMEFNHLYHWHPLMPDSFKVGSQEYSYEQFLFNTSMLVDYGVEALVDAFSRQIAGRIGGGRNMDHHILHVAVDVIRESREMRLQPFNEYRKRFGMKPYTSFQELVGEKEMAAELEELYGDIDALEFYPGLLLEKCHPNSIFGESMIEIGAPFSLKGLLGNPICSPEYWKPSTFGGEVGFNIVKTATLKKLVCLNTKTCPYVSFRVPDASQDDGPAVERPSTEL
Text: (§23) targets. The list of targets included the original panel of 44 targets (including receptors, ion channels,
(§24) transporters and enzymes) recommended by 4 major pharmaceutical companies as significant
(§25) reasoned to link to pathological effects. Results showing an inhibition or stimulation higher than 50%
(§26) are considered to represent significant effects (i.e. a “hit”).
(§27) and 50% are indicative of weak to moderate effects and results showing an inhibition (or stimulation)
(§28) around the control level. For several targets, additional concentration effect assays were conducted to
(§29) determine the potency (IC50). The concentrations tested (in duplicate) ranged between 30 nM and 100

HepG2 cells [3] = assay: Transcriptomics (TempO-Seq, BMD analysis) in HepG2 cells; type: cell-based, human
Experimental: as §10, §11, §12, §13, §14, §15, §16
Gene normalization and analysis
as §17, §18, §19, §20, §21, §22

PDE4D2 (h) = PDE4D2 (h) (Homo sapiens, UniProt Q08499); assay: Pharmacology profiling: PDE4D2 (h) (phosphodiesterase 4D); type: biochemical
Chain of PDE4D2 (h) (Q08499 303-809): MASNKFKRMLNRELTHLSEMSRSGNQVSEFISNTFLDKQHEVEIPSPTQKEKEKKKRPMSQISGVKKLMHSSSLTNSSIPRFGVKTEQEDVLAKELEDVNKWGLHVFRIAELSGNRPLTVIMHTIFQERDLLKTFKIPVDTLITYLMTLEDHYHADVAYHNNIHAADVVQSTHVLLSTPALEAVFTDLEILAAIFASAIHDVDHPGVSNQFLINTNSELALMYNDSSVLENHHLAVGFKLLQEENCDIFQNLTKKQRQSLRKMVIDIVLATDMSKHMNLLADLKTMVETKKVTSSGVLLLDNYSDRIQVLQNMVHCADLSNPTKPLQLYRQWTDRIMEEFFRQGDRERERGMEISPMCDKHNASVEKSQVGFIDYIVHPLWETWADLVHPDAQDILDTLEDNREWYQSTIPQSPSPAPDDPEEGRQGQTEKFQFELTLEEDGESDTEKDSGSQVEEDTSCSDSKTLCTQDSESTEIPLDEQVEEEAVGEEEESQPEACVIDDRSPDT
Text: as §1, §2, §3, §4, §5, §6, §7, §8, §9

Adenosine A2A (h) = Adenosine A2A (h) (Homo sapiens, UniProt P29274); assay: Pharmacology profiling: Adenosine A2A (h) (agonist RL); type: binding
Chain of Adenosine A2A (h) (P29274 whole entry): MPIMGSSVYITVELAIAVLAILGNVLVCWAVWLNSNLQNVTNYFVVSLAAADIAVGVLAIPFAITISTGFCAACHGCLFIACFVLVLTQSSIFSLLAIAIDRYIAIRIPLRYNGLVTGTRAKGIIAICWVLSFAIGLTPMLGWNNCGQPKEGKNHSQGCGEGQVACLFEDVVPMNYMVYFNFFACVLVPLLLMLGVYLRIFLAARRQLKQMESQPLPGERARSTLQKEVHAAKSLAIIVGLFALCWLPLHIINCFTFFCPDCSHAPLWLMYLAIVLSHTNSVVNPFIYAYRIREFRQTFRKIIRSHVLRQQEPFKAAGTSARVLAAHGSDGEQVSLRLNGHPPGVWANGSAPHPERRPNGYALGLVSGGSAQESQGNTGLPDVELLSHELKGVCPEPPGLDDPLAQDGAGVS
Text: as §1, §2, §3, §4, §5, §6, §7, §8, §9

Thyroid pathway = system: Thyroid pathway; set-up: method as in ToxCast; settings: ref ToxCast; read-out: Thyroid pathway: Reporter protein Antagonist, AC50; cited from earlier work
MAO-A = biological target: T1, MAO-A (Rattus norvegicus, UniProt P21396); assay: Pharmacology profiling: MAO-A (antagonist RL); type: binding; settings: read-out: MAO-A (antagonist RL): % inhibition @10 µM
T1 sequence (P21396 1-526): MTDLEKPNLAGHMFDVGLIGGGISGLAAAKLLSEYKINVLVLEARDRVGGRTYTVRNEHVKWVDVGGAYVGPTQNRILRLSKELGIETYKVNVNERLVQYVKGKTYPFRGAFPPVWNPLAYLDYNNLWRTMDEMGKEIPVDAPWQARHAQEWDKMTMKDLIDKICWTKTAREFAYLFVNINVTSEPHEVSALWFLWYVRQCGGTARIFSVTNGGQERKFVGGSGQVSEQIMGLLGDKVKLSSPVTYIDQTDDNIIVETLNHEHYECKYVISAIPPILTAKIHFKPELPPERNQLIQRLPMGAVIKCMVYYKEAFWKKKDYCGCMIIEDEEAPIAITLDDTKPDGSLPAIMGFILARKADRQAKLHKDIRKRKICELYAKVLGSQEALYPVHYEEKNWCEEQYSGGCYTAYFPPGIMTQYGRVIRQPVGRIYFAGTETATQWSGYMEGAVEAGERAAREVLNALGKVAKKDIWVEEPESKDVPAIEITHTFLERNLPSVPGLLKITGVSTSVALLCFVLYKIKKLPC
Text: as §23, §24, §25, §26, §27, §28, §29

[4] = HepaRG, 24 h, pathway differs per chemical

## O=c1c(-c2ccc(O)cc2)coc2cc(O)cc(O)c12 [Genistein, 5,7-DIHYDROXY-3-(4-HYDROXYPHENYL)-4-BENZOPYRONE]
HepaRG cells; HepaRG cells
  BMD/NOEC, gene pathway deregulation: 40.0 nM
HepaRG cells; [4]
  Lowest median BMD, 3 genes passing all filters: 0.040 µM
  Lowest median BMD, >5 genes passing all filters: 0.051 µM
HepaRG cells; HepaRG, 24 h, pathway named in the cell
  BMD relating to estrogen effects: 0.11- Estrogen-dependent gene expression ↑ µM
TSHR
  Thyroid pathway: Regulation of transcription factor activity (TSHR), Call: Neg
Deiodinase
  Thyroid pathway: Deiodinase (Not AOP), Call: Pos
Deiodinase; read-out: Thyroid pathway: Deiodinase (Not AOP), AC50
  AC50: 2.43 µM
HepG2 cells [1]
  AhR Translocation: Effect: increase
  Apoptosis & necrosis: caspase 3/7: Effect: increase
  Apoptosis & necrosis: cell cycle arrest: Effect: decrease
  Cellular ATP: Effect: decrease
  DNA damage: Phospho-p53: Effect: increase
  DNA damage: p-H2AX: Effect: increase
  ER stress panel 1: ER integrity: Effect: increase
  ER stress panel 1: XBP1: Effect: increase
  ER stress panel 2: CHOP: Effect: increase
  Inflammation & pH: HIF1α: Effect: increase
  Inflammation & pH: ICAM-1: Effect: increase
  Inflammation & pH: intracellular pH: Effect: increase
  Metal stress: MTF1: Effect: decrease
  Mitochondrial mass: Effect: increase
  Mitochondrial membrane potential: Effect: decrease
  Nuclear size: Effect: increase
  Osmotic & heat shock: NFAT: Effect: increase
  Oxidative stress: HMOX1: Effect: increase
  Oxidative stress: NRF2: Effect: increase
  Seahorse assay: Extracellular acidification rate (ECAR): Effect: decrease
  Seahorse assay: oxygen consumption rate (OCR): Effect: decrease
  Seahorse assay: reserve capacity: Effect: decrease
HepG2 cells [1]; read-out: AhR Translocation: AC50
  AC50: > 100 µM
HepG2 cells [1]; read-out: Apoptosis & necrosis: caspase 3/7: AC50
  AC50: > 100 µM
HepG2 cells [1]; read-out: Apoptosis & necrosis: cell cycle arrest: AC50
  AC50: > 100 µM
HepG2 cells [1]; read-out: Cellular ATP: AC50
  AC50: > 100 µM
HepG2 cells [1]; read-out: DNA damage: Phospho-p53: AC50
  AC50: > 100 µM
HepG2 cells [1]; read-out: DNA damage: p-H2AX: AC50
  AC50: > 100 µM
HepG2 cells [1]; read-out: ER stress panel 1: ER integrity: AC50
  AC50: > 100 µM
HepG2 cells [1]; read-out: ER stress panel 1: XBP1: AC50
  AC50: 40.4 µM
HepG2 cells [1]; read-out: ER stress panel 2: CHOP: AC50
  AC50: > 100 µM
HepG2 cells [1]; read-out: Inflammation & pH: HIF1α: AC50
  AC50: > 100 µM
HepG2 cells [1]; read-out: Inflammation & pH: ICAM-1: AC50
  AC50: > 100 µM
HepG2 cells [1]; read-out: Inflammation & pH: intracellular pH: AC50
  AC50: > 100 µM
HepG2 cells [1]; read-out: Metal stress: MTF1: AC50
  AC50: > 100 µM
HepG2 cells [1]; read-out: Mitochondrial mass: AC50
  AC50: > 100 µM
HepG2 cells [1]; read-out: Mitochondrial membrane potential: AC50
  AC50: 69.6 µM
HepG2 cells [1]; read-out: Nuclear size: AC50
  AC50: > 100 µM
HepG2 cells [1]; read-out: Osmotic & heat shock: NFAT: AC50
  AC50: > 100 µM
HepG2 cells [1]; read-out: Oxidative stress: HMOX1: AC50
  AC50: > 100 µM
HepG2 cells [1]; read-out: Oxidative stress: NRF2: AC50
  AC50: > 100 µM
HepG2 cells [1]; read-out: Seahorse assay: Extracellular acidification rate (ECAR): AC50
  AC50: > 100 µM
HepG2 cells [1]; read-out: Seahorse assay: oxygen consumption rate (OCR): AC50
  AC50: > 100 µM
HepG2 cells [1]; read-out: Seahorse assay: reserve capacity: AC50
  AC50: > 100 µM
HepG2 cells [1]; human, 24 h
  AhR Translocation: MEC: 51.2 µM
  Apoptosis & necrosis: caspase 3/7: MEC: 49.8 µM
  Apoptosis & necrosis: cell cycle arrest: MEC: 35.8 µM
  Cell stress LOEC, ↓ in mitochondrial membrane potential: 11.6 µM
  Cellular ATP: MEC: 31.5 µM
  DNA damage: Phospho-p53: MEC: 22.8 µM
  DNA damage: p-H2AX: MEC: 13.4 µM
  ER stress panel 1: ER integrity: MEC: 23.3 µM
  ER stress panel 1: XBP1: MEC: 40.9 µM
  ER stress panel 2: CHOP: MEC: 69.0 µM
  Inflammation & pH: HIF1α: MEC: 44.8 µM
  Inflammation & pH: ICAM-1: MEC: 34.4 µM
  Inflammation & pH: intracellular pH: MEC: 50.6 µM
  Metal stress: MTF1: MEC: 25.5 µM
  Mitochondrial mass: MEC: 15.0 µM
  Mitochondrial membrane potential: MEC: 11.6 µM
  Nuclear size: MEC: 25.2 µM
  Osmotic & heat shock: NFAT: MEC: 49.4 µM
  Oxidative stress: HMOX1: MEC: 29.9 µM
  Oxidative stress: NRF2: MEC: 29.9 µM
  Seahorse assay: Extracellular acidification rate (ECAR): MEC: 27.7 µM
  Seahorse assay: oxygen consumption rate (OCR): MEC: 41.5 µM
  Seahorse assay: reserve capacity: MEC: 34.8 µM
Thyroid peroxidase
  Thyroid pathway: Thyroid peroxidase, Call: Pos
[2]
  Amount of parent chemical entering the systemic circulation: 7.2 % of the applied dose
5-HT2B (h)
  IC50: 0.682 µM
5-HT2B (h); read-out: 5-HT2B (h) (agonist RL): % inhibition @10 µM
  inhibition at 10 µM: 91.9%
COX1 (h)
  IC50: 7.69 µM
HepG2 cells [3]; HepG2, 24 h, pathway differs per chemical
  Lowest median BMD, >5 genes passing all filters: 15.7 µM
HepG2 cells [3]; HepG2, 24 h, pathway named in the cell
  BMD relating to estrogen effects: 53.8 - Estrogen-dependent gene expression ↓ µM
HepG2 cells [3]; HepG2 cells
  BMD/NOEC, gene pathway deregulation: 15.7 µM
PDE4D2 (h)
  IC50: 0.738 µM
PDE4D2 (h); read-out: PDE4D2 (h) (phosphodiesterase 4D): % inhibition @10 µM
  inhibition at 10 µM: 87%
Adenosine A2A (h)
  IC50: 10 µM
Adenosine A2A (h); read-out: Adenosine A2A (h) (agonist RL): % inhibition @10 µM
  inhibition at 10 µM: 52.2%
Thyroid pathway
  AC50: 13.1 µM
MAO-A
  inhibition at 10 µM: 86%
